From patent publication US20240116985A1, “STAPLED PEPTIDES AND METHODS THEREOF” (priority 2020, published 2024)
Converted amounts (≈) assume the structure as drawn. Like-named read-outs stand apart in the source and are kept apart here.

Columns and labels:
[1] = molecular target: T1, full-length beta-Catenin (Uniprot ID P35222) (Homo sapiens, UniProt P35222); assay: Fluorescence polarization IC50 (beta-catenin / 5FAM-TCF4 10-53 competition); assay type: binding; conditions: fluorescence polarization
T1 construct: 10 nM full-length beta-Catenin (Uniprot ID P35222)
T1 sequence (P35222 1-781): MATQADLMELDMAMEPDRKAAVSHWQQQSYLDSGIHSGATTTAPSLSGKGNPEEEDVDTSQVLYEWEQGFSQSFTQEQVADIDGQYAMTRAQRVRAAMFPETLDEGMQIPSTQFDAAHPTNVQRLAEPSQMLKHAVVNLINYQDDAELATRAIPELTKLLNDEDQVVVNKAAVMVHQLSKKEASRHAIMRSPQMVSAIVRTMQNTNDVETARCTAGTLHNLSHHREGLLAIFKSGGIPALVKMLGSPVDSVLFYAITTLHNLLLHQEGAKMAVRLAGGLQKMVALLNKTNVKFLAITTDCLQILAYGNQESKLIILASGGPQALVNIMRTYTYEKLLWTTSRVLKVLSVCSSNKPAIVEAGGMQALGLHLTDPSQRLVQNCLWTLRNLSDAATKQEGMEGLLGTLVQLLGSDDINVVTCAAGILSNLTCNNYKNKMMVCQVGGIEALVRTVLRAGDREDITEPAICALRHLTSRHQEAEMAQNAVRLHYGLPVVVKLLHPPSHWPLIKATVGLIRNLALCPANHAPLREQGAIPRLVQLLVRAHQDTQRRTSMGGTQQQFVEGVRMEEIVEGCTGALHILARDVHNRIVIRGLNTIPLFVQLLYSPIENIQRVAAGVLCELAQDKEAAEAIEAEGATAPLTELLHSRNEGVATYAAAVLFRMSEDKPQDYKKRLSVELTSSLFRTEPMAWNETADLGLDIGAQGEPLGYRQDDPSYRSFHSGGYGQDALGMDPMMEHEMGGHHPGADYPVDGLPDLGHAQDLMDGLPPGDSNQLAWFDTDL

Solubility in PBS = assay type: physicochemical
Method in brief: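 The PBS solution was ultracentrifuged and the supernatant analyzed by HPLC. Its peak area was divided by that of a 50 μM peptide DMSO reference injection and multiplied by 50 uM to give solubility.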

[2] = beta-catenin, read-out: FP EC50

SMILES | IC50 ([1]; read-out: beta-Catenin FP IC50) [nM] | Solubility (Solubility in PBS; Solubility (uM)) [µM] | IC50 [1, 2] [nM] | Solubility (Solubility in PBS) [µM]
CC(=O)N1CCC[C@]12CC=CCCCC1(CCCC=CCCCOC(=O)N3CC[C@@](C(=O)N[C@@H](Cc4ccccc4Cl)C(=O)N[C@@H](Cc4csc5ccccc45)C(=O)N[C@H](CO)[C@@H](C)O)(C3)NC(=O)[C@H](CC(C)C)NC(=O)[C@H](Cc3ccccc3)NC(=O)[C@H](C)NC(=O)[C@H](C)NC(=O)[C@H](CC(=O)O)NC(=O)[C@H](CC(=O)O)NC1=O)NC(=O)[C@H](CC1CCCCC1)NC(=O)[C@H](CC(=O)O)NC2=O (stereo partly drawn) [I-1307, Ac-PL3-Asp-Cha-B5-Asp-Asp-Ala-Ala-Phe-Leu-PyrS2-2C1F-BztA-Thro1] | 21 | 20 (≈ 38.6 µg/mL) |  | 
CC(=O)N1CCC[C@]12CC=CCCCC1(CCCC=CCCCOC(=O)N3CC[C@@](C(=O)N[C@@H](Cc4ccccc4)C(=O)N[C@@H](Cc4cccc5ccccc45)C(=O)N[C@@H](CO)C(N)=O)(C3)NC(=O)[C@H]([C@@H](C)O)NC(=O)[C@H](Cc3ccccc3)NC(=O)[C@H](C)NC(=O)[C@H](C)NC(=O)[C@H]([C@@H](C)O)NC(=O)[C@H](CC(=O)O)NC1=O)NC(=O)[C@H](CC(C)(C)C)NC(=O)[C@H](CC(=O)O)NC2=O (stereo partly drawn) [I-1272, Ac-PL3-Asp-Npg-B5-Asp-Thr-Ala-Ala-Phe-Thr-PyrS2-Phe-1NapA-Ser-NH2] | 331 | 21 (≈ 38.6 µg/mL) |  | 
CC(=O)N1CCC[C@]12CC=CCCCC1(CCCC=CCCCOC(=O)N3CC[C@@](C(=O)N[C@@H](Cc4ccsc4)C(=O)N[C@@H](Cc4csc5ccccc45)C(=O)N[C@@H](CCC(N)=O)C(N)=O)(C3)NC(=O)[C@H](CC(C)C)NC(=O)[C@H](Cc3ccccc3)NC(=O)C(C)(C)NC(=O)C(C)(C)NC(=O)[C@H](CC(=O)O)NC(=O)[C@H](CC(=O)O)NC1=O)NC(=O)[C@H](CC(C)(C)C)NC(=O)[C@H](CC(=O)O)NC2=O (stereo partly drawn) [I-1179, Ac-PL3-Asp-Npg-B5-Asp-Asp-Aib-Aib-Phe-Leu-PyrS2-3Thi-BztA-Gln-NH2] | 346 |  | 346 | 44 (≈ 85.6 µg/mL)
CC(=O)N1CCC[C@]12CC=CCCCC1(CCCC=CCCCOC(=O)N3CC[C@@](C(=O)N[C@@H](Cc4ccccc4)C(=O)N[C@@H](Cc4csc5ccccc45)C(=O)N[C@@H](CCC(N)=O)C(N)=O)(C3)NC(=O)[C@H](CC(C)C)NC(=O)[C@H](Cc3ccccc3)NC(=O)[C@H](C)NC(=O)[C@H](CCCCNC(C)C)NC(=O)[C@H](CCCCN)NC(=O)[C@H](CC(=O)O)NC1=O)NC(=O)[C@H](C)NC(=O)[C@H](CC(N)=O)NC2=O (stereo partly drawn) [I-1386, Ac-PL3-Asn-Ala-B5-Asp-Lys-iPrLys-Ala-Phe-Leu-PyrS2-Phe-BztA-Gln-NH2] | 2250 |  |  | 10 (≈ 19.7 µg/mL)
CC(=O)N1CCC[C@]12CC=CCCCC1(CCCC=CCCCOC(=O)N3CC[C@@](C(=O)N[C@@H](Cc4ccccc4)C(=O)N[C@@H](Cc4csc5ccccc45)C(=O)N[C@H](C(N)=O)[C@@H](C)O)(C3)NC(=O)[C@H](CC(C)C)NC(=O)[C@H](Cc3ccccc3)NC(=O)[C@H](C)NC(=O)[C@H](CCCCNC(C)C)NC(=O)[C@H]([C@@H](C)O)NC(=O)[C@H](CC(N)=O)NC1=O)NC(=O)[C@H](C)NC(=O)[C@H](CC(=O)O)NC2=O (stereo partly drawn) [I-1378, Ac-PL3-Asp-Ala-B5-Asn-Thr-iPrLys-Ala-Phe-Leu-PyrS2-Phe-BztA-Thr-NH2] | 6170 |  |  | 10 (≈ 19.1 µg/mL)
CC(=O)N1CCC[C@]12CC=CCCCC1(CCCC=CCCCOC(=O)N3CC[C@@](C(=O)N[C@@H](Cc4ccsc4)C(=O)N[C@@H](Cc4csc5ccccc45)C(=O)N[C@@H](CCC(N)=O)C(N)=O)(C3)NC(=O)[C@H](CC(N)=O)NC(=O)[C@H](Cc3ccccc3)NC(=O)[C@H](C)NC(=O)[C@H](C)NC(=O)[C@H](CC(=O)O)NC(=O)[C@H](CCO)NC1=O)NC(=O)[C@H](CC(C)(C)C)NC(=O)[C@H](CC(=O)O)NC2=O (stereo partly drawn) [I-1214, Ac-PL3-Asp-Npg-B5-Hse-Asp-Ala-Ala-Phe-Asn-PyrS2-3Thi-BztA-Gln-NH2] | 116 |  |  | 50 (≈ 95.2 µg/mL)
CC(=O)N1CCC[C@]12CC=CCCCC1(CCCC=CCCCOC(=O)N3CC[C@@](C(=O)N[C@@H](Cc4ccccc4Cl)C(=O)N[C@@H](Cc4csc5ccccc45)C(=O)N[C@H](CO)[C@@H](C)O)(C3)NC(=O)[C@H](CC(C)C)NC(=O)[C@H](Cc3ccccc3)NC(=O)[C@H](C)NC(=O)[C@H](CCCCNC(C)C)NC(=O)[C@H](CC(=O)O)NC(=O)[C@H](CC(=O)O)NC1=O)NC(=O)[C@H](CC(C)(C)C)NC(=O)[C@H](CC(=O)O)NC2=O (stereo partly drawn) [I-1313, Ac-PL3-Asp-Npg-B5-Asp-Asp-iPrLys-Ala-Phe-Leu-PyrS2-2C1F-BztA-Thro1] | 12 |  |  | 10 (≈ 20 µg/mL)
CC(=O)N1CCC[C@]12CC=CCCCC1(CCCC=CCCCCCC[C@@](C)(C(=O)N[C@@H](Cc3ccccc3Cl)C(=O)N[C@@H](Cc3csc4ccccc34)C(=O)N[C@@H](CCO)C(N)=O)NC(=O)[C@H](CC(C)C)NC(=O)[C@H](Cc3ccccc3)NC(=O)[C@H](C)NC(=O)[C@H](C)NC(=O)[C@H](CC(=O)O)NC(=O)[C@H](CC(=O)O)NC1=O)NC(=O)[C@H](CC(C)(C)C)NC(=O)[C@H](CC(=O)O)NC2=O (stereo partly drawn) [I-1196, Ac-PL3-Asp-Npg-B5-Asp-Asp-Ala-Ala-Phe-Leu-S8-2C1F-BztA-Hse-NH2] | 85 |  |  | 10 (≈ 18.8 µg/mL)
CC(=O)N1CCC[C@]12CC=CCCCC1(CCCC=CCCCOC(=O)N3CC[C@@](C(=O)N[C@@H](Cc4ccsc4)C(=O)N[C@@H](Cc4csc5ccccc45)C(=O)N[C@@H](CCC(N)=O)C(N)=O)(C3)NC(=O)[C@H](CC(N)=O)NC(=O)[C@H](Cc3ccccc3)NC(=O)[C@H](C)NC(=O)[C@H](C)NC(=O)[C@H](CC(=O)O)NC(=O)[C@H](CO)NC1=O)NC(=O)[C@H](CC(C)(C)C)NC(=O)[C@H](CC(=O)O)NC2=O (stereo partly drawn) [I-1208, Ac-PL3-Asp-Npg-B5-Ser-Asp-Ala-Ala-Phe-Asn-PyrS2-3Thi-BztA-Gln-NH2] | 349 | 44 (≈ 83.2 µg/mL) |  | 
CC(=O)N1CCC[C@]12CC=CCCCC1(CCCC=CCCCOC(=O)N3CC[C@@](C(=O)N[C@@H](Cc4ccsc4)C(=O)N[C@@H](Cc4csc5ccccc45)C(=O)N[C@@H](CCC(N)=O)C(N)=O)(C3)NC(=O)[C@H](CC(C)C)NC(=O)[C@H](Cc3ccccc3)NC(=O)[C@H](C)NC(=O)[C@H](C)NC(=O)[C@H]([C@@H](C)O)NC(=O)[C@H](CC(=O)O)NC1=O)NC(=O)[C@H](CC1CCCCC1)NC(=O)[C@H](CC(=O)O)NC2=O (stereo partly drawn) [I-1174, Ac-PL3-Asp-Cha-B5-Asp-Thr-Ala-Ala-Phe-Leu-PyrS2-3Thi-BztA-Gln-NH2] | 43 |  |  | 10 (≈ 19.3 µg/mL)
CC(=O)N1CCC[C@]12CC=CCCCC1(CCCC=CCCCOC(=O)N3CC[C@@](C(=O)N[C@@H](Cc4ccccc4Cl)C(=O)N[C@@H](Cc4csc5ccccc45)C(=O)N[C@@H](CCC(N)=O)C(N)=O)(C3)NC(=O)[C@H](CO)NC(=O)[C@H](Cc3ccccc3)NC(=O)[C@H](CC(C)C)NC(=O)[C@H](CC(C)C)NC(=O)[C@H](CC(=O)O)NC(=O)[C@H](CC(=O)O)NC1=O)NC(=O)[C@H](CC1CCCCC1)NC(=O)[C@H](CC(=O)O)NC2=O (stereo partly drawn) [I-1149, Ac-PL3-Asp-Cha-B5-Asp-Asp-Leu-Leu-Phe-Ser-PyrS2-2C1F-BztA-Gln-NH2] | 70 |  |  | 10 (≈ 20.3 µg/mL)
CC(=O)N1CCC[C@H]1C(=O)N[C@@H](CC(=O)O)C(=O)N[C@@H](CC1CCCCC1)C(=O)N[C@]1(C)CCCC=CCCCOC(=O)N2CC[C@@](C(=O)N[C@@H](Cc3ccccc3Cl)C(=O)N[C@@H](Cc3csc4ccccc34)C(=O)N[C@@H](CO)C(N)=O)(C2)NC(=O)[C@H]([C@@H](C)O)NC(=O)[C@H](Cc2ccccc2)NC(=O)[C@H](C)NC(=O)[C@H](C)NC(=O)[C@H](CC(=O)O)NC(=O)[C@H](CC(=O)O)NC1=O [I-1184, Ac-Pro-Asp-Cha-R5-Asp-Asp-Ala-Ala-Phe-Thr-PyrS2-2C1F-BztA-Ser-NH2] | 176 | 45 (≈ 83.4 µg/mL) |  | 
CC(=O)N1CCC[C@]12CC=CCCCC1(CCCC=CCCCCCC[C@@](C)(C(=O)N[C@@H](Cc3ccsc3)C(=O)N[C@@H](Cc3csc4ccccc34)C(=O)N[C@@H](CO)C(N)=O)NC(=O)[C@H](CC(C)C)NC(=O)[C@H](Cc3ccccc3)NC(=O)[C@H](C)NC(=O)[C@H](C)NC(=O)[C@H](CC(=O)O)NC(=O)[C@H](CC(=O)O)NC1=O)NC(=O)[C@H](CC(C)(C)C)NC(=O)[C@H](CC(=O)O)NC2=O (stereo partly drawn) [I-1190, Ac-PL3-Asp-Npg-B5-Asp-Asp-Ala-Ala-Phe-Leu-S8-3Thi-BztA-Ser-NH2] | 58.5 |  |  | 10 (≈ 18.3 µg/mL)
CC(C)C[C@@H]1NC(=O)[C@H](Cc2ccccc2)NC(=O)[C@H](C)NC(=O)[C@H](C)NC(=O)[C@H](CC(=O)O)NC(=O)[C@H](CC(=O)O)NC(=O)C2(CCCC=CCCCOC(=O)N3CC[C@@](C(=O)N[C@@H](Cc4ccccc4)C(=O)N[C@@H](Cc4csc5ccccc45)C(=O)N[C@@H](CCC(N)=O)C(N)=O)(C3)NC1=O)CCCC=CC[C@]1(CCCN1C(=O)CCCN(C)C)C(=O)N[C@@H](CC(=O)O)C(=O)N[C@@H](CC(C)(C)C)C(=O)N2 (stereo partly drawn) [I-1359, NdiMeButC-PL3-Asp-Npg-B5-Asp-Asp-Ala-Ala-Phe-Leu-PyrS2-Phe-BztA-Gln-NH2] | 88 |  | 88 | 34 (≈ 67.4 µg/mL)
